In US11453642B2, “Oxygenated amino- or ammonium-containing sulfonic acid, phosphonic acid and carboxylic acid derivatives and their medical use” (GRI BIO, INC., priority 2011, dated 2022):
Where two headings read alike, the source gives them in different places.

Tests used:
RBL-2H3 cells = test: Maximum tolerated concentration (cytotoxicity by lactate dehydrogenase release); format: cell-based, Rat; conditions: for MTC (maximum tolerated concentration): highest concentration not causing cytotoxicity (LDH release), RBL-2H3 cells; for SI (safety index): ratio between MTC and IC50
Text: The safety index (SI) of a test compound is the ratio between the maximum tolerated concentration and the IC50 and is used as a measure of the relative safety of the test compound.

[1] = Pharmacokinetic study after a single oral administration to mice; format: in vivo; conditions: for cmax / tmax: single oral 100 mg/kg in 0.5% methylcellulose; for clast: concentration at last sampling time point; for AUC0-inf: extrapolated to infinity; for tlast: time of last sampling time point; for AUC0-t: time zero to tlast
Experimental: The aim of the study was to evaluate pharmacokinetic (PK) properties of five different batches including anhydrates and monohydrates of the crystal form A of compound 1a (cf. Table 1 in Example 5) after a single oral administration to mice. Three of the forms were anhydrous and two were monohydrates.
Compound 1a was administered as a suspension of 0.5% methyl cellulose (Sigma-Aldrich) in water at a dose of 100 mg/kg (10 ml/kg) by oral gavage to non-fasted female Balb/c mice (n=3).
Blood was collected by decapitation at 0.5, 1, 2, 4, 8, 12, 24, and 48 h after administration. Blood plasma was isolated by centrifugation at 4° C. (20,000×g for 10 min), transferred to microtubes containing lithium-heparin and frozen in aliquots at −70° C. until assayed by mass-spectrometry. Mean plasma concentration-time profiles (semi-logarithmic) of the five polymorphic crystal forms of compound 1a are shown in FIG. 6.
For PK evaluation, summary statistics and plotting of concentration/time curves, all values below the lower limit of quantification (LLOQ) were set to zero.

[2] = female Balb/c mice, plasma, 100 mg/kg
[3] = female Balb/c mice, single oral 100 mg/kg, 100 mg/kg
[4] = female Balb/c mice, single oral 100 mg/kg
[5] = female Balb/c mice, single oral 100 mg/kg, terminal half-life, 100 mg/kg

Structure (SMILES): CCCCCCCCCCCCCCN(C)CC(O)CS(=O)(=O)O (centres unmarked) [Compound 1b, 2-hydroxy-3-(N-methyltetradecylammonio)propanesulfonate]
- MTC (maximum tolerated concentration) (RBL-2H3 cells): 100 µM
- SI (safety index) (RBL-2H3 cells): 19.6

Structure (SMILES): CCCCCCCCCCCCCC[N+](C)(C)CC(CS(=O)(=O)[O-])OC (centres unmarked) [Compound 1d, 2-methoxy-3-(N,N-dimethyl-N-tetradecylammonio)-propane-1-sulfonate]
- MTC (maximum tolerated concentration) (RBL-2H3 cells): 75 µM
- SI (safety index) (RBL-2H3 cells): 22.7

Structure (SMILES): CCCCCCCCCCCCCCCCN(C)CC(O)CS(=O)(=O)O (centres unmarked) [KP-0722.11, 2-hydroxy-3-(N-methylhexadecylammonio)propane-sulfonate]
- cmax [1, 2]: 571 ng/mL
- tmax [1, 2]: 2.0 h
- MRT [1, 3]: 4.8 h
- clast [1, 3]: 3.8 ng/mL
- AUC0-inf [1, 3]: 3179 ng·h/mL
- tlast [1, 3]: 24.0 h
- AUC0-t [1, 3]: 3162 ng·h/mL

Structure (SMILES): CCCCCCCCCCCCCCCCN(C)CC(O)CS(=O)(=O)O (centres unmarked) [TN-0382.11, 2-hydroxy-3-(N-methylhexadecylammonio)propane-sulfonate]
- second plasma peak (time after administration) [1, 4]: 8 h
- cmax [1, 2]: 627 ng/mL
- tmax [1, 2]: 1.0 h
- MRT [1, 3]: 5.9 h
- clast [1, 3]: 3.4 ng/mL
- AUC0-inf [1, 3]: 3547 ng·h/mL
- tlast [1, 3]: 24.0 h
- AUC0-t [1, 3]: 3535 ng·h/mL

Structure (SMILES): CCCCCCCCCCCCCC[N+](C)(C)CC(CS(=O)(=O)[O-])OC(C)=O (centres unmarked) [Compound 1e, 2-acetoxy-3-(N,N-dimethyltetradecylammonio)propanesulfonate]
- MTC (maximum tolerated concentration) (RBL-2H3 cells): 100 µM
- SI (safety index) (RBL-2H3 cells): 25.6

Structure (SMILES): CCCCCCCCCCCCCCCCN(C)CC(O)CS(=O)(=O)O (centres unmarked) [KP-0726.11, 2-hydroxy-3-(N-methylhexadecylammonio)propane-sulfonate]
- second plasma peak (time after administration) [1, 4]: 8 h
- cmax [1, 2]: 759 ng/mL
- tmax [1, 2]: 1.0 h
- MRT [1, 3]: 5.5 h
- clast [1, 3]: 1.2 ng/mL
- AUC0-inf [1, 3]: 3758 ng·h/mL
- t1/2 [1, 5]: 8.2 h
- tlast [1, 3]: 48.0 h
- AUC0-t [1, 3]: 3744 ng·h/mL

Structure (SMILES): CCCCCCCCCCCCCCCCN(C)CC(O)CS(=O)(=O)O (centres unmarked) [2338-CF/30, 2-hydroxy-3-(N-methylhexadecylammonio)propane-sulfonate]
- tmax [1, 2]: 1.0 h
- clast [1, 3]: 1.8 ng/mL
- tlast [1, 3]: 48.0 h
- cmax ([1]; female, Balb/c, mouse, plasma, po, 100 mg/kg, female Balb/c mice, plasma, read-out: cmax): 1060 ng/mL
- AUC0-inf ([1]; female, Balb/c, mouse, plasma, po, 100 mg/kg, female Balb/c mice, single oral 100 mg/kg, read-out: AUC0-inf): 3140 ng·h/mL
- MRT ([1]; female, Balb/c, mouse, plasma, po, 100 mg/kg, female Balb/c mice, single oral 100 mg/kg, read-out: MRT): 5.5 h
- half-life ([1]; female, Balb/c, mouse, plasma, po, 100 mg/kg, female Balb/c mice, single oral 100 mg/kg, terminal half-life): 9.9 h
- AUC0-t ([1]; female, Balb/c, mouse, plasma, po, 100 mg/kg, female Balb/c mice, single oral 100 mg/kg, read-out: AUC0-t): 3120 ng·h/mL

Structure (SMILES): CCCCCCCCCCCCCCCCN(C)CC(O)CS(=O)(=O)O (centres unmarked) [2208-CF/1, 2-hydroxy-3-(N-methylhexadecylammonio)propane-sulfonate]
- overall exposure ([1]; compared among the five forms, single oral 100 mg/kg): highest
- cmax [1, 2]: 1003 ng/mL
- tmax [1, 2]: 1.0 h
- MRT [1, 3]: 5.0 h
- clast [1, 3]: 1.1 ng/mL
- AUC0-inf [1, 3]: 4412 ng·h/mL
- t1/2 [1, 5]: 7.3 h
- tlast [1, 3]: 48.0 h
- AUC0-t [1, 3]: 4400 ng·h/mL
